Data taken from patent US20260217651A1 (priority 2022, published 2026).

System: SD rats
Test: animal or person
Type: in vivo, rat
Details: iv; for minimal effective dose: Rattus norvegicus, read-out: Minimal effective anesthetic dose(mg/kg); for Onset time / Righting Reflex Duration / Sedation Duration: rat, in vivo

Structure (SMILES)	minimal effective dose [mg/kg]	Onset time [min]	Righting Reflex Duration [min]	Sedation Duration [min]
COC(=O)N(c1ccccc1)C1CCN(c2cc(C(C)C)c(O)c(C(C)C)c2)CC1 [Cpd-3]	< 5	0.20 to 0.67	5.83 to 22.20	24.65 to 38.02
CCC(=O)N(C1CC1)C1CCN(c2cc(C(C)C)c(O)c(C(C)C)c2)CC1 [Cpd-5]	5 to 10	0.45	6.40	17.12
COC(=O)CN(C1CC1)C1CCN(c2cc(C(C)C)c(O)c(C(C)C)c2)CC1 [Cpd-8]	5 to 10	0.40	7.73	17.93
COC(=O)CN(c1ccccc1)C1CCN(c2cc(C(C)C)c(O)c(C(C)C)c2)CC1 [Cpd-10]	5 to 10	0.42 to 0.45	6.47 to 27.50	47.22 to 66.70
CC(=O)N(c1ccccc1)C1CCN(c2cc(C(C)C)c(O)c(C(C)C)c2)CC1 [Cpd-12]	10 to 20	0.45	6.85	55.12
CC(C)C(=O)N(c1ccccc1)C1CCN(c2cc(C(C)C)c(O)c(C(C)C)c2)CC1 [Cpd-14]	5 to 10	0.48	17.60	42.83
CC(C)OC(=O)N(c1ccccc1)C1CCN(c2cc(C(C)C)c(O)c(C(C)C)c2)CC1 [Cpd-15]	5 to 10	0.67	16.28	29.90
CCC(=O)N(c1ccccc1)C1CCN(c2cc(C(C)C)c(O)c([C@H](C)C3CC3)c2)CC1 [Cpd-18]	5 to 10	0.20 to 0.57	5.55 to 20.30	26.77 to 47.53
CCOC(=O)C1(c2ccccn2)CCN(c2cc(C(C)C)c(O)c(C(C)C)c2)CC1.Cl [Cpd-23]	10 to 20	0.53	13.95	41.02
CCOC(=O)C1(c2ccc(F)cc2F)CCN(c2cc(C(C)C)c(O)c(C(C)C)c2)CC1 [Cpd-27]	20 to 40	1.47	36.80	67.40
CCC(=O)N(CC1CCN(c2cc(C(C)C)c(O)c(C(C)C)c2)CC1)c1ccccc1 [Cpd-32]	5 to 10	0.52	2.67	19.68
CCOC(=O)C1(c2ccccc2F)CCN(c2cc(C(C)C)c(O)c(C(C)C)c2)CC1 [Cpd-34]	10 to 20	0.88	10.28	29.75
CCOC(=O)C1(c2cccc(Cl)c2)CCN(c2cc(C(C)C)c(O)c(C(C)C)c2)CC1 [Cpd-37]	5 to 10	2.63	0.65	21.73
CCC(=O)N(c1cc(C(C)C)c(O)c([C@H](C)C2CC2)c1)N1CCN(CCC(=O)OC)CC1 [Cpd-50]	20 to 40	1.03	1.47	66.48
CCOC(=O)N(c1ccccc1)N1CCN(c2cc(C(C)C)c(O)c(C(C)C)c2)CC1 [Cpd-51]	5 to 10	0.65 to 0.97	2.52 to 14.47	22.27 to 35.75
CC(C)OC(=O)N(c1ccccc1)N1CCN(c2cc(C(C)C)c(O)c(C(C)C)c2)CC1 [Cpd-52]	5 to 10	0.52 to 0.98	13.92 to 16.42	28.53 to 94.30
CCOC(=O)N(c1ccccc1)N1CCN(c2cc(C(C)C)c(O)c([C@H](C)C3CC3)c2)CC1 [Cpd-59]	10 to 20	0.37 to 0.85	21.18 to 24.15	37.27 to 47.68
CCOC(=O)N(c1cccc(C)c1)N1CCN(c2cc(C(C)C)c(O)c(C(C)C)c2)CC1 [Cpd-62]	10 to 20	1.15 to 2.15	1.22 to 17.28	55.48 to 85.02
CCOC(=O)N(c1ccc(F)cc1)N1CCN(c2cc(C(C)C)c(O)c(C(C)C)c2)CC1 [Cpd-64]	10 to 20	0.43 to 0.47	3.70 to 7.22	26.92 to 42.58
CCOC(=O)N(c1cccc(OC)c1)N1CCN(c2cc(C(C)C)c(O)c([C@H](C)C3CC3)c2)CC1 [Cpd-71]	10 to 20	0.55	17.52	37.65
CCOC(=O)N(c1ccc(C)cc1)N1CCN(c2cc(C(C)C)c(O)c([C@H](C)C3CC3)c2)CC1 [Cpd-74]	20 to 40	0.50	26.28	69.23
COC(=O)CC1CCN(Cc2cc(C(C)C)c(O)c([C@H](C)C3CC3)c2)CC1 [Cpd-77]	< 5	1.00 to 1.80	0.67 to 1.95	5.00 to 22.33
COC(=O)CN1CCN(Cc2cc(C(C)C)c(O)c([C@H](C)C3CC3)c2)CC1 [Cpd-78-1]	5 to 10	0.62	2.73	22.58
COC(=O)CC1CCN(c2cc(C(C)C)c(O)c([C@H](C)C3CC3)c2)CC1 [Cpd-80]	< 5	0.17 to 0.97	1.50 to 12.97	10.17 to 28.53
